Key:
Format in all cases: in vivo
[1] = tested on: F. oxysporum f. sp. niveum; assay: Greenhouse foliar spray, watermelon with or without Fusarium; conditions: disease conditions
Method: Watermelon seeds (Citrullus lanatus Thunb. cv Sugar Baby, Harris Seed Co., Rochester, N.Y.) were germinated in soilless potting mix (ProMix BX, Premier Hort Tech, Quakertown, Pa., USA) and fertilized once after three weeks with 40 mL of Peter's soluble 20-10-20 (N—P—K) fertilizer (R. J. Peters Inc., Allentown, Pa.). When plants reached the 3- to 4-leaf stage, uniform medium size plants were selected for NP exposure. […] For CuO NP, the suspension was sonicated using a probe sonicator for 2 min in an ice bath. […] One to two drops (1 ml/L) of Regulaid® nonionic surfactant were added into the suspensions prior to exposure. Polyvinylidene chloride film (Saran™ wrap) was fitted around the stem to prevent soil exposure to the NP suspensions. Although the primary purpose of this work was to compare different nanoscale materials, bulk CuO and CuSO4 (Sigma, St. Louis, Mo.) were used for additional comparative purposes in the greenhouse experiments. […]
F. oxysporum f. sp. niveum was prepared on Japanese millet, as previously described. […] The progress of disease as represented by the cumulative ratings of disease on replicate plants was plotted over time and the AUDPC was calculated using the trapezoid rule: AUDPC=Σ[Yi±Y(i±1)]/2×(t(i±1)−ti), where Yi=the disease rating at time ti. […]

[2] = tested on: Fusarium wilt of watermelon; assay: Field experiment Location 1, Fusarium wilt of watermelon
Method: (§1) Field experiments were conducted to evaluate if successful greenhouse results would translate to a field application. The following six treatments were established at two field locations (Hamden, Conn.—Location 1; and Griswold, Conn.—Location 2) to evaluate their effect on growth and Fusarium wilt of watermelon: CuO nanoparticles, Cu3(PO4)2.3H2O nanosheets, commercial powders of CuO and Cu3(PO4)2, CuSO4, and untreated controls. The commercial powders are not nanostructured as particles within the powders typically have a range of sizes from about 1 μm to 1 mm. Again, the primary purpose of this work was to compare the efficacy of the two nanoscale materials, and the suspensions of CuO and Cu3(PO4)2 commercial powders and the solution of CuSO4 were included only for comparison. It is noted that the CuO and Cu3(PO4)2 materials were used at concentrations where there were solid particles present in the liquid formulations, so those liquid formulations are best characterized as being suspensions with some dissolved ions. By contrast, because of its high solubility, CuSO4 in liquid is completely dissolved and thus is a true solution (only ions present and no remaining solid). […]
(§2) Field microplots were prepared in early June, 2017. […] Total plant biomass and fruit mass were determined at harvest, and select tissues were dried for analysis by ICP mass spectrometry (ICP-MS) as noted below.

[3] = tested on: Fusarium wilt of watermelon; assay: Field experiment Location 2, Fusarium wilt of watermelon; conditions: location 2, 400 mg/L, not statistically significant
Method: as §1, §2

## O=S(=O)([O-])[O-].[Cu+2] [CuSO4]
[1]
  effect on disease-induced decrease in vine length: had no impact
[2]; field, 400 mg/L
  disease result compared with the nanomaterial treatments: statistically equivalent
[2]; location 1, 400 mg/L
  increase of yield (total wet mass of fruit per plot) over the disease condition: no such benefit
[3]
  increase of fruit yield: 38.2%

Reference: patent publication US10820588B2, “Compositionally and morphologically controlled nanostructures for delivery of micronutrients and suppression of disease in agriculture” (Wisconsin Alumni Research Foundation, priority 2018, dated 2020)
